“Also recorded” adds a separate entry of the source. Like-named read-outs stand apart in the source and are kept apart here.

The test system of data set [1] is uptake of the dopamine (DA). Briefly: inhibition of the uptake of dopamine (DA) by synaptosomes of the rat's brain, striatum. It is filed as biochemical. Conditions: in vitro; for IC50: rat brain synaptosomes, striatum.
Description: (§1) The results are expressed by an inhibiting concentration IC50, which represents the dose of product in micromoles per liter reducing by 50% the uptake of the noradrenaline (NA), the dopamine (DA), the serotonine (5-HT), or the choline in the specific regions of the brain (hypothalamus,striatum, medulla+pons) where the corresponding neurons predominate.
In data set [2] the test system is hypothermia caused by reserpine. Briefly: action on hypothermia caused by reserpine in mice. The format is in vivo. Conditions: Mus musculus, po, read-out: ED50 p.o. (dose exerting an antihypothermic effect equal to 50% of that caused by 15 mg/kg per os of imipramine).
Protocol: The results are expressed by an ED50 or dose of product, in mg/kg, capable of exerting an antihypothermic effect equal to 50% of the antihypothermic effect caused by 15 mg/kg (per os) of imipramine.
The subject of data set [3] is uptake of the serotonine (5-HT). In words: inhibition of the uptake of serotonine (5-HT) by synaptosomes of the rat's brain, medulla + pons. The format is biochemical. Conditions: in vitro; for IC50: rat brain synaptosomes, medulla + pons.
Description: as §1
For data set [4], the system named is uptake of the noradrenaline (NA). In words: inhibition of the uptake of noradrenaline (NA) by synaptosomes of the rat's brain, hypothalamus. The format is biochemical. The note with it: in vitro; for IC50: rat brain synaptosomes, hypothalamus.
Description: as §1
In a further data set the test system is uptake of the choline. Briefly: inhibition of the uptake of choline by synaptosomes of the rat's brain, striatum. The format is biochemical. Conditions: in vitro; for IC50: rat brain synaptosomes, striatum.
Data set [5] is described as follows: acute toxicity, oral, male mouse CD1. Conditions: in vivo, 3 days observation. The text has this:
The acute toxicities of the compounds of formula (I) have been determined on the male mouse CD1 (Charles River), the products being administered orally. The LD50 have been calculated, after 3 days observation, by the cumulative method of J. J. REED and H. MUENCH. (Amer. J. Hyg. 27, 493, 1938), which is relied upon herein for this purpose and the disclosure incorporated by reference.

[6] abbreviates: compared with imipramine and nomifensine.

Description for uptake of the choline: as §1

`CN(C)CCCN1c2ccccc2CCc2ccccc21` [Imipramine, reference compound]: the IC50 (in general, the concentration that inhibits the measured activity by half) in data set [1] came out at 55 µM; in data set [3], 0.08 µM; in data set [4], 0.13 µM; in the data set with uptake of the choline, 30 µM. Moreover, in data set [2] (mice, p.o., reserpine hypothermia), the ED50 was found to be 3 mg/kg.
With `c1ccc(C2CN3CCC2(c2ccccc2)CC3)cc1` (stereo not drawn) [Example 4, 3,4-diphenyl-1-aza-[2,2,2]-bicyclooctane], the LD50 (as a rule, the dose expected to kill half of the subjects tested) at 72 h in data set [5] was 200 mg/kg. Also, in data set [1] (setting [6]), the “inhibiting effect on uptake of the dopamine at the level of the striatum, in words” value is given as “active on all the four mediators used; also recorded: very superior to that of imipramine; also recorded: comes near to the nomifensine”. Further, the IC50 in data set [1] was determined as 0.6 µM; in data set [3], 0.3 µM; in data set [4], 0.045 µM; in the data set on uptake of the choline, 25 µM. For the same compound, the ED50 in data set [2] came out at 2 mg/kg. The “inhibiting effect on 5-HT uptake, in words” value in data set [3] (compared with imipramine) is listed as “active on all the four mediators used; also recorded: near to that of the imipramine”. For the same compound, the “inhibiting effect on NA uptake, in words” value in data set [4] (compared with imipramine) is “active on all the four mediators used; also recorded: near to that of the imipramine”. Also, the “inhibiting activity on the neuronal uptake of the choline, in words” value in the data set with uptake of the choline (setting [6]) is on record as “active on all the four mediators used; also recorded: near to that of the imipramine; also recorded: exerts on the neuronal uptake of the choline an inhibiting activity”.

The values are drawn from patent US4224332A, “1-Aza-[2,2,2]-bicyclooctanes and anti-depressant and anti-parkinsonian compositions thereof” (Pharmindustrie, priority 1978, dated 1980).
